The test system of the assay is BDF1 mice, P388 leukemia ip, median survival T/C. Nature of the assay: NCI In Vivo Anticancer Drug Screen. Data for tumor model P388 Leukemia (intraperitoneal) in B6D2F1 (BDF1) mice. The conditions noted are these: endpoint: median survival time, higher = longer survival. An outline of the steps: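 Survival ratio, drug arm over vehicle arm, in mice with a transplanted tumour.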

The mark [1] stands for this setting: dose: 6.25 mg/kg/injection, schedule: Q01DX009 (ip), vehicle: water.
Where [2] appears, read: dose: 12.5 mg/kg/injection, schedule: Q01DX009 (ip), vehicle: water.
Setting [3] is: dose: 25.0 mg/kg/injection, schedule: Q01DX009 (ip), vehicle: water.
Where [4] appears, read: dose: 50.0 mg/kg/injection, schedule: Q01DX009 (ip), vehicle: water.
[5] abbreviates: dose: 100.0 mg/kg/injection, schedule: Q01DX009 (ip), vehicle: water.
[6] abbreviates: dose: 200.0 mg/kg/injection, schedule: Q01DX009 (ip), vehicle: water.
Setting [7] is: dose: 400.0 mg/kg/injection, schedule: Q01DX009 (ip), vehicle: water.
[8] abbreviates: dose: 100.0 mg/kg/injection, schedule: Q01DX009 (ip), vehicle: saline with Tween-80.
Where [9] appears, read: dose: 200.0 mg/kg/injection, schedule: Q01DX009 (ip), vehicle: saline with Tween-80.
[10] abbreviates: dose: 50.0 mg/kg/injection, schedule: Q01DX009 (ip), vehicle: saline with Tween-80.
The mark [11] stands for this setting: dose: 50.0 mg/kg/injection, schedule: Q01DX009 (ip), vehicle: Klucel (hydroxypropylcellulose) (HPC).
[12] abbreviates: dose: 100.0 mg/kg/injection, schedule: Q01DX009 (ip), vehicle: Klucel (hydroxypropylcellulose) (HPC).

Several values for one entry are separate records, joined by “and”; a condition that tells them apart may be missing. Equal entries are not always repeated. Inconclusive results and toxic doses are left out. Residues, ends and D or L forms follow the SMILES beside them.

Consider `CC(=O)Oc1cc(-c2ccccc2)c(OC(C)=O)cc1-c1ccccc1`, for which the T/C is, setting by setting: under setting [1], 109 % of control; under setting [2], 95 % of control; (dose: 12.5 mg/kg/injection, schedule: Q04DX003 (ip), vehicle: water) 89 % of control; under setting [3], 93 % of control; (dose: 25.0 mg/kg/injection, schedule: Q04DX003 (ip), vehicle: water) 89 % of control and 95 % of control; under setting [4], 92 % of control. Also, the T/C was 91 % of control and 98 % of control (dose: 50.0 mg/kg/injection, schedule: Q04DX003 (ip), vehicle: water); 94 % of control under setting [5]; 89 % of control and 95 % of control (dose: 100.0 mg/kg/injection, schedule: Q04DX003 (ip), vehicle: water); 102 % of control under setting [6]; 107 % of control (dose: 300.0 mg/kg/injection, schedule: Q01DX009 (ip), vehicle: water); 91 % of control under setting [7].

Consider `OCC(F)(F)C(F)(F)C(F)(F)F`, for which the T/C under setting [8] is 100 % of control; the T/C under setting [9] is 104 % of control; the T/C (dose: 400.0 mg/kg/injection, schedule: Q01DX009 (ip), vehicle: saline with Tween-80) was 109 % of control.

Regarding `Nc1cc2ccccc2c(O)c1O`, the T/C (dose: 75.0 mg/kg/injection, schedule: Q04DX003 (ip), vehicle: saline sonified) is 100 % of control; the T/C (dose: 150.0 mg/kg/injection, schedule: Q04DX003 (ip), vehicle: saline sonified) was 111 % of control; the T/C (dose: 300.0 mg/kg/injection, schedule: Q04DX003 (ip), vehicle: saline sonified) is 94 % of control.

Regarding `CC(=O)C(c1ccccc1)[N+](C)(C)C` (stereo not given), the T/C (dose: 100.0 mg/kg/injection, schedule: Q04DX003 (ip), vehicle: other) is 108 % of control.

With `NCc1c(Cl)c(Cl)c(Cl)c(CN)c1Cl`, the T/C is, setting by setting: under setting [10], 100 % of control; under setting [8], 90 % of control; under setting [9], 86 % of control.

As for `C=C(C)[C@@]12O[C@@]3(CCCCCCCCC)O[C@@H]1[C@@H]1[C@@H]4O[C@]4(CO)[C@@H](O)[C@]4(O)C(=O)C(C)=CC4[C@@]1(O3)[C@H](C)[C@H]2OC(=O)c1ccccc1` (stereo not given in full), the T/C (dose: 400.0 micrograms/kg/injection, schedule: Q01DX009 (ip), vehicle: saline + alcohol) is 174 % of control.

`C[n+]1ccc(Nc2ccc(NC(=O)c3ccc(C(=O)Nc4ccc(Nc5cc[n+](C)c(N)n5)cc4)cc3)cc2)nc1N`: the T/C was 180 % of control (dose: 6.3 mg/kg/injection, schedule: Q01DX007 (ip), vehicle: Klucel (hydroxypropylcellulose) (HPC)); 155 % of control (dose: 6.3 mg/kg/injection, schedule: Q01DX009 (ip), vehicle: saline); 180 % of control (dose: 9.6 mg/kg/injection, schedule: Q01DX007 (ip), vehicle: Klucel (hydroxypropylcellulose) (HPC)); 161 % of control (dose: 9.6 mg/kg/injection, schedule: Q01DX009 (ip), vehicle: saline); 190 % of control (dose: 12.5 mg/kg/injection, schedule: Q01DX009 (ip), vehicle: Klucel (hydroxypropylcellulose) (HPC)); 175 % of control (dose: 14.0 mg/kg/injection, schedule: Q01DX007 (ip), vehicle: Klucel (hydroxypropylcellulose) (HPC)). In addition, the T/C was 150 % of control (dose: 14.0 mg/kg/injection, schedule: Q01DX009 (ip), vehicle: saline); 172 % of control (dose: 25.0 mg/kg/injection, schedule: Q01DX009 (ip), vehicle: Klucel (hydroxypropylcellulose) (HPC)); 204 % of control under setting [11]; 259 % of control under setting [12]; 172 % of control (dose: 100.0 mg/kg/injection, schedule: Q04DX003 (ip), vehicle: saline); 163 % of control (dose: 200.0 mg/kg/injection, schedule: Q04DX003 (ip), vehicle: saline).

Consider `CC(=O)O[C@@]1(C)[C@@H](C)C(=O)O[C@@H]2CCN3CC=C(COC(=O)[C@]1(C)O)[C@H]23`, for which the T/C runs as follows: (dose: 25.0 mg/kg/injection, schedule: Q01DX010 (ip), vehicle: carboxymethylcellulose (CMC)) 110 % of control; (dose: 50.0 mg/kg/injection, schedule: Q01DX010 (ip), vehicle: carboxymethylcellulose (CMC)) 95 % of control; (dose: 100.0 mg/kg/injection, schedule: Q01DX010 (ip), vehicle: carboxymethylcellulose (CMC)) 100 % of control.

Consider `Clc1ccc(-c2ncc3cnccn23)cc1Cl`, for which the T/C (dose: 0.78 mg/kg/injection, schedule: Q04DX003 (ip), vehicle: saline with Tween-80) was 92 % of control; the T/C (dose: 1.56 mg/kg/injection, schedule: Q01DX009 (ip), vehicle: saline with Tween-80) is 89 % of control; the T/C (dose: 1.56 mg/kg/injection, schedule: Q04DX003 (ip), vehicle: saline with Tween-80) is 90 % of control; the T/C (dose: 3.12 mg/kg/injection, schedule: Q01DX009 (ip), vehicle: saline with Tween-80) is 95 % of control; the T/C (dose: 3.12 mg/kg/injection, schedule: Q04DX003 (ip), vehicle: saline with Tween-80) was 94 % of control; the T/C (dose: 6.25 mg/kg/injection, schedule: Q01DX009 (ip), vehicle: saline with Tween-80) is 95 % of control. The T/C runs as follows: (dose: 6.25 mg/kg/injection, schedule: Q04DX003 (ip), vehicle: saline with Tween-80) 100 % of control; (dose: 12.5 mg/kg/injection, schedule: Q01DX009 (ip), vehicle: saline with Tween-80) 99 % of control; (dose: 25.0 mg/kg/injection, schedule: Q01DX009 (ip), vehicle: saline with Tween-80) 100 % of control; under setting [10], 100 % of control.

In the case of `NCCCCC(N)C(=O)NC(CCCN=C(N)N)C(=O)O` (stereo not drawn) (H-Lys-Arg-OH; configuration not given here), the T/C runs as follows: (dose: 3.12 mg/kg/injection, schedule: Q01DX009 (ip), vehicle: water) 101 % of control; under setting [1], 97 % of control and 99 % of control and 117 % of control; under setting [2], 105 % of control and 109 % of control; under setting [3], 101 % of control and 104 % of control and 118 % of control; under setting [4], 93 % of control and 94 % of control and 95 % of control; under setting [5], 90 % of control and 100 % of control and 113 % of control. For the same compound, the T/C under setting [6] is 109 % of control.

For the compound `CC(C)CSP(=S)(c1cc(Cl)ccc1Cl)c1cc(Cl)ccc1Cl`, the T/C by setting is: (dose: 50.0 mg/kg/injection, schedule: Q01DX009 (ip), vehicle: other) 102 % of control; (dose: 100.0 mg/kg/injection, schedule: Q01DX009 (ip), vehicle: other) 101 % of control; (dose: 200.0 mg/kg/injection, schedule: Q01DX009 (ip), vehicle: other) 105 % of control.

For the compound `Nc1nccnc1C(=O)O`, the T/C under setting [2] is 102 % of control; the T/C under setting [3] was 109 % of control; the T/C under setting [4] was 117 % of control; the T/C under setting [5] was 105 % of control; the T/C (dose: 200.0 mg/kg/injection, schedule: Q04DX003 (ip), vehicle: water) is 101 % of control; the T/C (dose: 300.0 mg/kg/injection, schedule: Q04DX003 (ip), vehicle: water) was 110 % of control. Besides, the T/C was 109 % of control under setting [7]; 105 % of control (dose: 400.0 mg/kg/injection, schedule: Q04DX003 (ip), vehicle: water); 100 % of control (dose: 600.0 mg/kg/injection, schedule: Q04DX003 (ip), vehicle: water).

Consider `CC1CCCC[N-]1.CC1CCCC[N-]1.[Cl][Pt+2][Cl]` (stereo not given), for which the T/C by setting is: under setting [11], 103 % of control; under setting [12], 97 % of control.

With `Cc1noc(/N=C/c2ccccc2)c1C`, the T/C is 108 % of control (dose: 100.0 mg/kg/injection, schedule: Q01DX001 (ip), vehicle: Klucel (hydroxypropylcellulose) (HPC)); 95 % of control (dose: 100.0 mg/kg/injection, schedule: Q04DX003 (ip), vehicle: Klucel (hydroxypropylcellulose) (HPC)); 104 % of control (dose: 200.0 mg/kg/injection, schedule: Q01DX001 (ip), vehicle: Klucel (hydroxypropylcellulose) (HPC)); 100 % of control and 104 % of control (dose: 200.0 mg/kg/injection, schedule: Q04DX003 (ip), vehicle: Klucel (hydroxypropylcellulose) (HPC)); 112 % of control (dose: 400.0 mg/kg/injection, schedule: Q01DX001 (ip), vehicle: Klucel (hydroxypropylcellulose) (HPC)); 91 % of control and 100 % of control (dose: 400.0 mg/kg/injection, schedule: Q04DX003 (ip), vehicle: Klucel (hydroxypropylcellulose) (HPC)).
